Consider four molecules from patent US9102648B1, “Bioavailable diacylhydrazine ligands for modulating the expression of exogenous genes via an ecdysone receptor complex” (Intrexon Corporation, priority 2003, dated 2015).

SMILES strings stand for the structures. Where two headings read alike, the source gives them in different places.

The nature of data set [1]: Partition coefficient Log (D), 1-octanol / pH 7.4 buffer. It counts as physicochemical. As to conditions: water-saturated 1-octanol / pH 7.4 buffer, room temperature. As to the method: The partition coefficient, Log (D), between water-saturated 1-octanol and pH 7.4 buffer was determined for the test compounds. The buffer was prepared as described in section 2. A 12 μl aliquot of a 10 mM stock solution in DMSO was introduced to a vial containing 0.60 mL of octanol and 0.60 mL of buffer at room temperature. Testosterone was also added to a final concentration of 100 μM as an internal control. The solution was vortexed for 60 minutes and centrifuged at 10,000 rpm for 10 minutes. The organic and aqueous layers were removed. Serial dilutions of the organic layer were made with 50% methanol except for the initial dilution, which was made in 100% methanol. Serial dilutions of the aqueous layer were made in the pH 7.4 buffer. The diluted samples were then assayed by LC/MS for the compound as well as for testosterone. The Log of the ratio of peak area responses was calculated to obtain the Log (D). Typical Log D values for testosterone are from 3.0-3.3.

The test system of the next data set is Caco-2 monolayers. As to the kind of experiment: Bi-directional permeability, CACO-2. To be noted: for Papp Blank / Papp, A-to-B Avg / Papp, A-to-B Rep. 1 / Papp, A-to-B Rep. 2 / Papp, B-to-A Avg / Papp, B-to-A Rep. 1 / Papp, B-to-A Rep. 2 / Significant Efflux: Caco-2; for Papp B-A / Papp A-B Ratio: Caco-2 efflux ratio. The format is in vitro ADME. As for the experimental part: (§1) Caco-2 monolayers were grown to confluence on collagen-coated, microporous, polycarbonate membranes in 12-well Costar Transwell plates. Details of the plates and their certification are shown below. The permeability assay buffer was Hank's Balanced Salt Solution containing 10 mM HEPES and 15 mM glucose at a pH of 7.0±0.2. The dosing solution concentration was 10 μM in assay buffer. At each time point, 1 and 2 hours, a 200-μL aliquot was taken from the receiver chamber and replaced with fresh assay buffer. Cells were dosed on the apical side (A-to-B) or basolateral side (B-to-A) and incubated at 37° C. with 5% CO2 and 90% relative humidity. Each determination was performed in duplicate. The important experimental parameters are outlined below. Permeability through a cell-free (blank) membrane was studied to determine non-specific binding and free diffusion of the compound through the device. Lucifer yellow flux was also measured for each monolayer after being subjected to the test compounds to ensure no damage was inflicted to the cell monolayers during the flux period.
(§2) All samples were assayed by LC/MS using electrospray ionization. Typical LC/MS conditions are as follows:
(§3) dCr/dt is the cumulative concentration in the receiver compartment versus time in M s^−1.
(§4) Vr is the volume of the receiver compartment in cm^3.
(§5) Vd is the volume of the donor compartment in cm^3.
(§6) A is the area of the cell monolayer (1.13 cm^2 for 12-well Transwell).
(§7) C0 is the concentration of the dosing solution in M.
(§8) Cr^final is the cumulative receiver concentration in M at the end of the incubation period.
(§9) Cd^final is the concentration of the donor in M at the end of the incubation period.
For orientation: Caco-2 monolayers are a common model of the intestinal barrier.

Data set [2] concerns mutated ecdysone receptor-based gene switch. As to the kind of experiment: In vivo SEAP induction, ligand by IP injection. The arrangement: species or system C57BL/6 mouse. As to conditions: for Secreted Alkaline Phosphatase (percentage of GS ™-E ligand induction) Day 2 / Secreted Alkaline Phosphatase (percentage of GS ™-E ligand induction) Day 3 / Secreted Alkaline Phosphatase (percentage of GS ™-E ligand induction) Day 11: mouse serum; for Secreted Alkaline Phosphatase (percentage of GS ™-E ligand induction) Day 2: IP 2.6 μmol ligand 3 days after electroporation, day 2 after ligand; for Secreted Alkaline Phosphatase (percentage of GS ™-E ligand induction) Day 3 / Secreted Alkaline Phosphatase (percentage of GS ™-E ligand induction) Day 11: IP 2.6 μmol ligand; for Secreted Alkaline Phosphatase (percentage of GS ™-E ligand induction) Day 3: day 3 after ligand; for Secreted Alkaline Phosphatase (percentage of GS ™-E ligand induction) Day 11: day 11 after ligand. In a few lines:
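Gene switch plasmids (receptor under CMV promoter) electroporated into quadriceps of C57BL/6 mice; 3 days later ligand given IP at 2.6 μmol or 26 nmol in 50 μL DMSO per mouse. Serum SEAP measured by chemiluminescence 2-11 days after dosing, averaged over four animals, expressed as % of GS™-E ligand induction.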

Data set [3] in a line: Aqueous equilibrium solubility in pH 7.4 buffer. As to conditions: pH 7.4 aqueous buffer, room temperature, equilibrium.
Protocol: Equilibrium solubility was measured in pH 7.4 aqueous buffer. The buffer was prepared by adjusting the pH of a 0.07 M solution of NaH2PO4 to pH 7.4 with 10 N NaOH. […] At least 1 mg of powder was combined with 1 mL of buffer to make >1 mg/mL mixture. These samples were shaken for ≧2 hours and left to stand overnight at room temperature. The samples were then filtered through a 0.45-μm Nylon syringe filter that was first saturated with the sample. The filtrate was sampled twice, consecutively. The filtrate was assayed by HPLC against standards prepared in methanol.
The nature of data set [4]: Bi-directional permeability, CACO-2. The format is in vitro ADME. To be noted: for Papp A→B at 2 h, 10 µM / Papp B→A at 2 h, 10 µM: Caco-2, pH 7, Papp. As for the experimental part: as §1, §2, §3, §4, §5, §6, §7, §8, §9

For the molecule `CCCC(N(NC(=O)c1cccc(OC)c1C)C(=O)c1cc(C)cc(C)c1)C(C)(C)C` (stereo not drawn) [RG-115823], the “Log(D) Octanol/pH 7.4” value in data set [1] amounted to 3.3. Besides, in the data set on Caco-2 monolayers, the “Papp Blank” value is reported as 24.2 10^−6 cm/s; the “Papp, A-to-B Avg” value is 17.6 10^−6 cm/s; the “Papp, A-to-B Rep. 1” value is given as 17.4 10^−6 cm/s; the “Papp, A-to-B Rep. 2” value is 17.8 10^−6 cm/s. Besides, in the data set with Caco-2 monolayers, the “Papp, B-to-A Avg” value is reported as 17.1 10^−6 cm/s; the “Papp, B-to-A Rep. 1” value is recorded as 18.8 10^−6 cm/s; the “Papp, B-to-A Rep. 2” value is 15.4 10^−6 cm/s; the “Significant Efflux” value is on record as “No”. Moreover, the “Papp B-A / Papp A-B Ratio” value in the data set on Caco-2 monolayers turned out to be 1.0. Further, the “Secreted Alkaline Phosphatase Day 2” value in data set [2] (IP 26 nmol ligand, day 2) is given as 3,788 ng/ml mouse sera. Further, the “Secreted Alkaline Phosphatase Day 3” value in data set [2] (IP 26 nmol ligand, day 3) is recorded as 2,705 ng/ml mouse sera. Further, the “Secreted Alkaline Phosphatase Day 7” value in data set [2] (IP 26 nmol ligand, day 7) is on record as 373 ng/ml mouse sera. In data set [2], the “Secreted Alkaline Phosphatase (percentage of GS ™-E ligand induction) Day 2” value is 129 percentage of GS ™-E ligand induction, the “Secreted Alkaline Phosphatase (percentage of GS ™-E ligand induction) Day 3” value is on record as 183 percentage of GS ™-E ligand induction and the “Secreted Alkaline Phosphatase (percentage of GS ™-E ligand induction) Day 11” value is listed as 2,652 percentage of GS ™-E ligand induction. Also, the “Solubility pH 7.4” value in data set [3] came out at 0.0003 mg/mL.
As a reminder, the Papp is a coefficient for how fast a substance crosses the barrier. Low readings indicate poor permeation, high ones ready permeation. Broadly, the efflux ratio is the permeability from basolateral to apical divided by that in the opposite direction, in the common usage. The Papp A→B is the apparent permeability from the apical to the basolateral side of a cell layer. Low values mean slow passage, high ones fast passage. Broadly, the Papp B→A is how fast a substance crosses the layer from the basolateral side. For `Cc1cc(C)cc(C(=O)N(NC(=O)c2ccc3c(c2C)OCCO3)C(C)(C)C)c1` [RG-102317, N-(5-methyl-1,4-benzodioxan-6-carbonyl)-N′-(tert-butyl)-N′-(3,5-dimethylbenzoyl)hydrazine], the “Log(D) Octanol/pH 7.4” value in data set [1] amounted to 3.6. This molecule also came in with a Papp at 2 h, 10 µM in data set [4] (Caco-2, pH 7, Papp Blank) of 27.9 ×10⁻⁶ cm/s. Besides, the recovery at 2 h, 10 μM in data set [4] (Caco-2, pH 7, cell-free (blank) membrane, read-out: Percent Recovery Blank) stood at 87%; in data set [4] (human, Caco-2, pH 7, Caco-2, apical-to-basolateral, read-out: Percent Recovery A-to-B), 91%; in data set [4] (human, Caco-2, pH 7, Caco-2, basolateral-to-apical, read-out: Percent Recovery B-to-A), 86%. Moreover, the efflux ratio at 2 h, 10 μM in data set [4] (human, Caco-2, pH 7) was 0.8. Further, the apparent permeability from apical to basolateral (Papp A→B) at 2 h, 10 µM in data set [4] (human, A-to-B Avg) came out at 28 ×10⁻⁶ cm/s; in data set [4] (human, A-to-B Rep. 1) it was 28.6 ×10⁻⁶ cm/s; in data set [4] (human, A-to-B Rep. 2), 27.3 ×10⁻⁶ cm/s. In addition, the basolateral-to-apical permeability (Papp B→A) at 2 h, 10 µM in data set [4] (human, B-to-A Avg) was 21.1 ×10⁻⁶ cm/s; in data set [4] (human, B-to-A Rep. 1), 21 ×10⁻⁶ cm/s; in data set [4] (human, B-to-A Rep. 2) it was 21.2 ×10⁻⁶ cm/s. Further, the “Significant Efflux” value in the data set on Caco-2 monolayers is “No”. The “Secreted Alkaline Phosphatase (percentage of GS ™-E ligand induction) Day 2” value in data set [2] is recorded as 112 percentage of GS ™-E ligand induction. The “Secreted Alkaline Phosphatase (percentage of GS ™-E ligand induction) Day 3” value in data set [2] is reported as 116 percentage of GS ™-E ligand induction. The “Secreted Alkaline Phosphatase (percentage of GS ™-E ligand induction) Day 11” value in data set [2] was 61 percentage of GS ™-E ligand induction.
For `COc1cnccc1C(=O)N(NC(=O)c1cccc(O)c1C)C(C)(C)C` [RG-115595], the “Log(D) Octanol/pH 7.4” value in data set [1] was 2.1. For the same molecule, in the data set with Caco-2 monolayers, the “Papp Blank” value is 33.2 10^−6 cm/s; the “Papp, A-to-B Avg” value is on record as 19.2 10^−6 cm/s; the “Papp, A-to-B Rep. 1” value was 19.6 10^−6 cm/s; the “Papp, A-to-B Rep. 2” value is recorded as 18.9 10^−6 cm/s. In the data set on Caco-2 monolayers, the “Papp, B-to-A Avg” value was 30.7 10^−6 cm/s; the “Papp, B-to-A Rep. 1” value is 29.8 10^−6 cm/s; the “Papp, B-to-A Rep. 2” value is on record as 31.7 10^−6 cm/s; the “Significant Efflux” value was “No”. Further, the “Papp B-A / Papp A-B Ratio” value with Caco-2 monolayers is 1.6. Besides, the “Solubility pH 7.4” value in data set [3] is on record as 0.026 mg/mL.
In the case of `CC(=O)c1ccc(C(=O)NN(C(=O)c2cc(C(=O)O)cc(C(=O)O)c2)C(C)(C)C)cc1` [RG-100150], the “Log(D) Octanol/pH 7.4” value in data set [1] is −2.1. Besides, in the data set on Caco-2 monolayers, the “Papp Blank” value is 36.9 10^−6 cm/s; the “Papp, A-to-B Avg” value is reported as 0.18 10^−6 cm/s; the “Papp, A-to-B Rep. 1” value is given as 0.19 10^−6 cm/s; the “Papp, A-to-B Rep. 2” value is 0.18 10^−6 cm/s. In the data set on Caco-2 monolayers, the “Papp, B-to-A Avg” value was 0.33 10^−6 cm/s; the “Papp, B-to-A Rep. 1” value is recorded as 0.33 10^−6 cm/s; the “Papp, B-to-A Rep. 2” value was 0.34 10^−6 cm/s; the “Significant Efflux” value is given as “No”. The “Solubility pH 7.4” value in data set [3] was “≧1.0 mg/mL”.
